Tests used:
Assay in all cases: relative viability (nuclei count vs DMSO), 5 days (fraction); higher = more cells survive
[1] = compound: C1=CC2=NC=CN=C2C=C1/C=C/3\C(=O)NC(=O)S3 + Cc1cc(Nc2cc(N3CCN(C)CC3)nc(Sc3ccc(NC(=O)C4CC4)cc3)n2)n[nH]1 [Tozasertib] (partner 0.1 µM)
Procedure, shortened: (§1)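 Lung cancer cell lines in 1536-well plates got either a single drug or a fixed anchor-drug dose together with five library-drug doses (not always all listed) in √10 steps, by pin tool, on the day after seeding. Nuclei were counted after 5 days, and relative viability is the treated-to-vehicle ratio of nuclei counts. Values are medians of duplicate plates.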

[2] = compound: C1=CC2=NC=CN=C2C=C1/C=C/3\C(=O)NC(=O)S3 + O=C(c1cc(Cc2n[nH]c(=O)c3ccccc23)ccc1F)N1CCN(C(=O)C2CC2)CC1 [Olaparib] (partner 8 µM)
Procedure, shortened: as §1

[3] = compound: C1=CC2=NC=CN=C2C=C1/C=C/3\C(=O)NC(=O)S3 + CS(=O)(=O)CCNCc1ccc(-c2ccc3ncnc(Nc4ccc(OCc5cccc(F)c5)c(Cl)c4)c3c2)o1 [Lapatinib] (partner 2 µM)
Procedure, shortened: as §1

[4] = compound: C1=CC2=NC=CN=C2C=C1/C=C/3\C(=O)NC(=O)S3 + CC(C)C[C@H](NC(=O)[C@H](Cc1ccccc1)NC(=O)c1cnccn1)B(O)O [Bortezomib] (partner 0.002 µM)
Procedure, shortened: as §1

NCI-H1650
relative viability ([1]; first compound 0.02 µM): 0.434 | relative viability ([1]; first compound 0.06325 µM): 0.446 | relative viability ([1]; first compound 0.2 µM): 0.459 | relative viability ([1]; first compound 0.6325 µM): 0.375 | relative viability ([1]; first compound 2 µM): 0.411 | relative viability ([2]; first compound 0.02 µM): 0.689 | relative viability ([2]; first compound 0.06325 µM): 0.825 | relative viability ([2]; first compound 0.2 µM): 0.845 | relative viability ([2]; first compound 0.6325 µM): 0.735 | relative viability ([2]; first compound 2 µM): 0.927 | relative viability ([3]; first compound 0.02 µM): 0.728 | relative viability ([3]; first compound 0.06325 µM): 0.725 | relative viability ([3]; first compound 0.2 µM): 0.937 | relative viability ([3]; first compound 0.6325 µM): 0.709 | relative viability ([3]; first compound 2 µM): 0.72 | relative viability ([4]; first compound 0.02 µM): 0.207 | relative viability ([4]; first compound 0.06325 µM): 0.173 | relative viability ([4]; first compound 0.2 µM): 0.219 | relative viability ([4]; first compound 0.6325 µM): 0.201 | relative viability ([4]; first compound 2 µM): 0.213

BEN
relative viability ([1]; first compound 0.02 µM): 0.525 | relative viability ([1]; first compound 0.06325 µM): 0.446 | relative viability ([1]; first compound 0.2 µM): 0.551 | relative viability ([1]; first compound 0.6325 µM): 0.517 | relative viability ([1]; first compound 2 µM): 0.683 | relative viability ([2]; first compound 0.02 µM): 1.09 | relative viability ([2]; first compound 0.06325 µM): 1.05 | relative viability ([2]; first compound 0.2 µM): 1.02 | relative viability ([2]; first compound 0.6325 µM): 1.12 | relative viability ([2]; first compound 2 µM): 1.03 | relative viability ([3]; first compound 0.02 µM): 0.624 | relative viability ([3]; first compound 0.06325 µM): 0.754 | relative viability ([3]; first compound 0.2 µM): 0.817 | relative viability ([3]; first compound 0.6325 µM): 0.608 | relative viability ([3]; first compound 2 µM): 0.505 | relative viability ([4]; first compound 0.02 µM): 0.803 | relative viability ([4]; first compound 0.06325 µM): 0.982 | relative viability ([4]; first compound 0.2 µM): 0.904 | relative viability ([4]; first compound 0.6325 µM): 0.566 | relative viability ([4]; first compound 2 µM): 0.705

EMC-BAC-2
relative viability ([1]; first compound 0.02 µM): 0.276 | relative viability ([1]; first compound 0.06325 µM): 0.253 | relative viability ([1]; first compound 0.2 µM): 0.368 | relative viability ([1]; first compound 0.6325 µM): 0.243 | relative viability ([1]; first compound 2 µM): 0.297 | relative viability ([2]; first compound 0.02 µM): 0.463 | relative viability ([2]; first compound 0.06325 µM): 0.498 | relative viability ([2]; first compound 0.2 µM): 0.572 | relative viability ([2]; first compound 0.6325 µM): 0.489 | relative viability ([2]; first compound 2 µM): 0.39 | relative viability ([3]; first compound 0.02 µM): 0.829 | relative viability ([3]; first compound 0.06325 µM): 0.96 | relative viability ([3]; first compound 0.2 µM): 0.962 | relative viability ([3]; first compound 0.6325 µM): 0.762 | relative viability ([3]; first compound 2 µM): 0.555 | relative viability ([4]; first compound 0.02 µM): 1.01 | relative viability ([4]; first compound 0.06325 µM): 1.2 | relative viability ([4]; first compound 0.2 µM): 1.02 | relative viability ([4]; first compound 0.6325 µM): 0.997 | relative viability ([4]; first compound 2 µM): 0.895

NCI-H2170
relative viability ([1]; first compound 0.02 µM): 0.6 | relative viability ([1]; first compound 0.06325 µM): 0.697 | relative viability ([1]; first compound 0.2 µM): 0.689 | relative viability ([1]; first compound 0.6325 µM): 0.734 | relative viability ([1]; first compound 2 µM): 0.795 | relative viability ([2]; first compound 0.02 µM): 0.55 | relative viability ([2]; first compound 0.06325 µM): 0.594 | relative viability ([2]; first compound 0.2 µM): 0.609 | relative viability ([2]; first compound 0.6325 µM): 0.577 | relative viability ([2]; first compound 2 µM): 0.563 | relative viability ([3]; first compound 0.02 µM): 0.278 | relative viability ([3]; first compound 0.06325 µM): 0.271 | relative viability ([3]; first compound 0.2 µM): 0.272 | relative viability ([3]; first compound 0.6325 µM): 0.251 | relative viability ([3]; first compound 2 µM): 0.246

NCI-H1299
relative viability ([2]; first compound 0.02 µM): 1.01 | relative viability ([2]; first compound 0.06325 µM): 0.961 | relative viability ([2]; first compound 0.2 µM): 1.01 | relative viability ([2]; first compound 0.6325 µM): 0.928 | relative viability ([2]; first compound 2 µM): 1.01 | relative viability ([3]; first compound 0.02 µM): 0.962 | relative viability ([3]; first compound 0.06325 µM): 1.04 | relative viability ([3]; first compound 0.2 µM): 0.946 | relative viability ([3]; first compound 0.6325 µM): 0.965 | relative viability ([3]; first compound 2 µM): 0.993 | relative viability ([4]; first compound 0.02 µM): 1.04 | relative viability ([4]; first compound 0.06325 µM): 1.04 | relative viability ([4]; first compound 0.2 µM): 1.04 | relative viability ([4]; first compound 0.6325 µM): 1.03 | relative viability ([4]; first compound 2 µM): 1.06

EBC-1
relative viability ([2]; first compound 0.02 µM): 0.626 | relative viability ([2]; first compound 0.06325 µM): 0.84 | relative viability ([2]; first compound 0.2 µM): 0.754 | relative viability ([2]; first compound 0.6325 µM): 0.76 | relative viability ([2]; first compound 2 µM): 0.723 | relative viability ([3]; first compound 0.02 µM): 0.221 | relative viability ([3]; first compound 0.06325 µM): 0.203 | relative viability ([3]; first compound 0.2 µM): 0.191 | relative viability ([3]; first compound 0.6325 µM): 0.189 | relative viability ([3]; first compound 2 µM): 0.231 | relative viability ([4]; first compound 0.02 µM): 0.538 | relative viability ([4]; first compound 0.06325 µM): 0.648 | relative viability ([4]; first compound 0.2 µM): 0.587 | relative viability ([4]; first compound 0.6325 µM): 0.546 | relative viability ([4]; first compound 2 µM): 0.816

NCI-H2342
relative viability ([1]; first compound 0.02 µM): 0.438 | relative viability ([1]; first compound 0.06325 µM): 0.561 | relative viability ([1]; first compound 0.2 µM): 0.688 | relative viability ([1]; first compound 0.6325 µM): 0.465 | relative viability ([1]; first compound 2 µM): 0.469 | relative viability ([2]; first compound 0.02 µM): 0.396 | relative viability ([2]; first compound 0.06325 µM): 0.403 | relative viability ([2]; first compound 0.2 µM): 0.449 | relative viability ([2]; first compound 0.6325 µM): 0.415 | relative viability ([2]; first compound 2 µM): 0.373

NCI-H1792
relative viability ([2]; first compound 0.02 µM): 0.319 | relative viability ([2]; first compound 0.2 µM): 0.347 | relative viability ([2]; first compound 0.6325 µM): 0.408 | relative viability ([2]; first compound 2 µM): 0.315 | relative viability ([3]; first compound 0.02 µM): 0.948 | relative viability ([3]; first compound 0.06325 µM): 0.851 | relative viability ([3]; first compound 0.2 µM): 0.839 | relative viability ([3]; first compound 0.6325 µM): 0.953 | relative viability ([3]; first compound 2 µM): 0.554 | relative viability ([4]; first compound 0.02 µM): 0.863 | relative viability ([4]; first compound 0.06325 µM): 0.734 | relative viability ([4]; first compound 0.2 µM): 0.928 | relative viability ([4]; first compound 0.6325 µM): 0.952 | relative viability ([4]; first compound 2 µM): 0.688

ChaGo-K-1
relative viability ([1]; first compound 0.02 µM): 0.243 | relative viability ([1]; first compound 0.06325 µM): 0.215 | relative viability ([1]; first compound 0.2 µM): 0.248 | relative viability ([1]; first compound 0.6325 µM): 0.232 | relative viability ([1]; first compound 2 µM): 0.239 | relative viability ([2]; first compound 0.02 µM): 0.385 | relative viability ([2]; first compound 0.06325 µM): 0.351 | relative viability ([2]; first compound 0.2 µM): 0.431 | relative viability ([2]; first compound 0.6325 µM): 0.412 | relative viability ([2]; first compound 2 µM): 0.412 | relative viability ([4]; first compound 0.02 µM): 1.05 | relative viability ([4]; first compound 0.06325 µM): 1.65 | relative viability ([4]; first compound 0.2 µM): 1.16 | relative viability ([4]; first compound 0.6325 µM): 0.952 | relative viability ([4]; first compound 2 µM): 0.868

LK-2
relative viability ([1]; first compound 0.02 µM): 0.174 | relative viability ([1]; first compound 0.06325 µM): 0.189 | relative viability ([1]; first compound 0.2 µM): 0.159 | relative viability ([1]; first compound 0.6325 µM): 0.191 | relative viability ([1]; first compound 2 µM): 0.165 | relative viability ([2]; first compound 0.02 µM): 0.739 | relative viability ([2]; first compound 0.06325 µM): 0.798 | relative viability ([2]; first compound 0.2 µM): 0.758 | relative viability ([2]; first compound 0.6325 µM): 0.702 | relative viability ([2]; first compound 2 µM): 0.348 | relative viability ([3]; first compound 0.02 µM): 1.01 | relative viability ([3]; first compound 0.06325 µM): 0.992 | relative viability ([3]; first compound 0.2 µM): 0.934 | relative viability ([3]; first compound 0.6325 µM): 0.825 | relative viability ([3]; first compound 2 µM): 0.481

From the supplement of paper PMC10307832
